Test results taken from patent US9486447B2, “Compositions and methods for controlling neuronal excitation” (The General Hospital Corporation, priority 2011, dated 2016).

Columns and labels:
zebrafish embryos = assay: Zebrafish behavioral assay (light-dependent motor excitation, excitation score); type: in vivo
Procedure: To identify small molecules for the optical control of endogenous channels, a screen was conducted for compounds that could drive light-dependent motor behaviors in wild-type zebrafish. Zebrafish embryos are particularly well suited for phenotype based chemical screens^28,29. They are blind for the first 3 days of development and other than a one-time motor response to the first light exposure in dark-adapted animals (the photomotor response, PMR), zebrafish embryos are unresponsive to light^31,30 (FIG. 1A). A library of 10,000 structurally diverse synthetic small molecules was screened for compounds that render zebrafish embryos responsive to light. Behavioral responses were measured for each well in comparison to a set of 2,500 DMSO treated controls. This screen identified a single compound, optovin, that increased motor activity greater than 40 standard deviations above the control mean (FIGS. 1A-1C).
A large number of fertilized eggs (up to 5,000 embryos per day) were collected from group mating of Ekkwill or TuAB zebrafish. Embryos were raised in HEPES (10 mM) buffered E3 media in a dark incubator at 28° C. until […]. Groups of ˜8 embryos (28 hpf) were distributed into the wells of flat bottom black-walled 96 well plates filled with E3 media (360 μl). Embryos were then incubated in a dark incubator 25° C. for chemical treatment and subsequent experiments.
The Tim Tec ACTIPROBEβ library contains 10,000 compounds dissolved in DMSO at a stock concentration of 1 mg/ml (˜3 mM). The Tim Tec library was screened at a 1:300 dilution in E3 buffer for a final concentration of ˜10 μM. Negative controls were treated with an equal volume of DMSO. Stock solutions were added directly to zebrafish in the wells of a 96 well plate, mixed, and allowed to incubate for 2-10 hours in the dark prior to behavioral evaluation in the PMR assay. The Tim Tec library (10,000 compounds) was purchased from the Tim Tec corporation (Newark, Del.). The Neurotransmitter Library (700 compounds; cat #2810) was purchased from Biomol International. Reordered hit compounds were dissolved in DMSO and added to wells as described above.
Animals were exposed to a two pulse stimulus train with a 10 s inter-stimulus interval. Exposure to the first pulse was used to trigger the photomotor response, which has a refractory phase of approximately 10 minutes. […] In a typical assay, 1000 frames of digital video were recorded at 33 fps using a Hamamatsu ORCA-ER camera mounted on a Nikon TE200 microscope with a 1× objective. Instrument control and data measurement were performed using custom scripts for Metamorph Software (Molecular Devices). Each video was saved for review. Light stimuli were generated with a 300-watt xenon bulb housed in a Sutter Lambda LS illuminator and delivered to the well 10 s and 20 s after the start of each video. A cold mirror (reflectance between 300 nm and 700 nm) on the Sutter illuminator was used to block wavelengths outside of this range. Light intensity was measured using a PM100D power meter attached to a S120VC photodiode power sensor (Thorlabs). Where indicated, filters were used to restrict the excitation light to the indicated wavelengths.
To analyze digital video recordings, custom software scripts were used to automatically draw six evenly spaced line segments across each well such that each embryo is likely to be crossed by one of the lines. The software then tracks the average intensity of the pixels for each segment over time. As the embryos move, the light intensity at some of the pixels changes. The motion index was calculated by taking the total absolute difference in pixel intensity between frames. This motion index correlates with the overall amount of motion in the well, both in terms of contraction frequency and number of animals in motion. Behavioral features are quantified by ‘excitation scores’ that are calculated by taking the 75th percentile of the motion index for 3-5 s following the light stimulus. […]

[1] = Crossing of the epidermis after topical application; type: in vivo, human; settings: humans as well as zebrafish
Description: As described herein, photo-sensitive TrpA1 agonists can be bioavailable. […] In some embodiments, a photo-sensitive TrpA1 agonist can be bioavailable when administered systemically. […] In some embodiments, oral administration of a photo-sensitive TrpA1 agonist can be considered for any method described herein.
Photo-sensitive TrpA1 agonists described herein can be administered by any delivery method known in the art, including but not limited to, injection; parenteral, intravenous, intramuscular, subcutaneous, transdermal, airway (aerosol), pulmonary, direct application, microsurgery, endoscopic surgery, topically, orally, vaginally and/or by contact with the gastro-intestinal lumen. […] This would agonist to all, or at least a variety of tissues, depending e.g. upon design/modification of the agonist to limit or expand systemic bioavailability such that electromagnetic radiation applied to any desired location would be expected to activate neuronal activity at the site of irradiation. In some embodiments, the photo-sensitive TrpA1 agonist can be administered systemically. In some embodiments, the photo-sensitive TrpA1 agonist can be administered locally.

Cc1cc(/C=C2/SC(=S)NC2=O)c(C)n1-c1cccnc1 [optovin]
light-dependent motor excitation in vivo (zebrafish embryos; 10 μM, n=3, FIG. 4H): cause light-dependent motor excitation | behavioral excitation (activity of optovin analogs) (zebrafish embryos; 10 μM, n=5, FIG. 2A): active | response to stimulus wavelengths (zebrafish embryos; 387, 485, 560 nm or longer): respond to 387 nm (violet) stimuli, but not to 485 nm (blue), 560 nm (green) or longer wavelengths | EC50 (zebrafish embryos; Danio rerio, dose response, n=5, read-out: EC50 of light-induced motor excitation (behavioral excitation score)): 2000 nM | behavioral excitation by singlet oxygen generating photosensitizers (zebrafish embryos; FIG. 4F): only optovin causes behavioral excitation | response to 387 nm light stimulus (zebrafish embryos; TrpA1b homozygous mutant animals): failed to respond | latency of movement (zebrafish embryos; depending on developmental stage): 100 to 300 ms | relation of stimulus and response duration (zebrafish embryos; radiation stimuli lasting between 5 and 20 seconds): stimulus and response duration are proportional | increase in motor activity above the control mean (Z-score) (zebrafish embryos; screen at ~10 μM, light stimulus, vs DMSO treated controls): greater than 40 standard deviations | light response of spinalized preparations (zebrafish embryos; trunks transected posterior to the hindbrain): respond to light | response to 387 nm light stimulus (zebrafish embryos; wild-type, TrpA1a heterozygous and TrpA1a homozygous mutant animals): respond to the 387 nm light stimulus with the typical prolonged motor excitation | Off rate (time between end of light stimulus and return to rest) (zebrafish embryos; zebrafish, in vivo): 2 s | On rate (latency between start of light stimulus and start of embryo movement) (zebrafish embryos; zebrafish, in vivo): -150 ms | lowest effective dose (zebrafish embryos; zebrafish, in vivo): 3 µM | radiation stimulus intensity eliciting motor behavior (zebrafish embryos; zebrafish, in vivo): greater than 1.6 μW/mm^2 | response to repeated light pulses (zebrafish embryos; zebrafish, in vivo): multiple responses can be triggered with repeated light pulses | crossing the epidermis to reach underlying muscles at an effective concentration [1]: able to cross the epidermis
